Source: ChEMBL document CHEMBL4024723, “Design, synthesis, and biological activity of novel tetrahydropyrazolopyridone derivatives as FXa inhibitors with potent anticoagulant activity” (Bioorg Med Chem, 2017)

Legend:
[1] = tested on: Plasma; test: Anticoagulant activity in rabbit plasma assessed as concentration required to double activated partial thromboplastin time; format: functional, Oryctolagus cuniculus
[2] = tested on: Plasma; test: Anticoagulant activity in human plasma assessed as concentration required to double activated partial thromboplastin time; format: functional
[3] = tested on: Plasma; test: Anticoagulant activity in rabbit plasma assessed as concentration required to double prothrombin time; format: functional, Oryctolagus cuniculus
[4] = tested on: Plasma; test: Anticoagulant activity in human plasma assessed as concentration required to double prothrombin time; format: functional
[5] = target: T1, Coagulation factor X (Homo sapiens, UniProt P00742); test: Inhibition of human F10a assessed as decrease in p-nitroaniline cleavage from pefachrome F10a at 0.5 uM preincubated for 10 mins followed by substrate addition measured after 20 mins relative to control
T1 sequence (P00742 41-179 limits assumed): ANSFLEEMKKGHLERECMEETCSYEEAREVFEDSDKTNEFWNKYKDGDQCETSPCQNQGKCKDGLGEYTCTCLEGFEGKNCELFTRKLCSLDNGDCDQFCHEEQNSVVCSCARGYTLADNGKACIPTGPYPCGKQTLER
T1 sequence (P00742 235-488 limits assumed): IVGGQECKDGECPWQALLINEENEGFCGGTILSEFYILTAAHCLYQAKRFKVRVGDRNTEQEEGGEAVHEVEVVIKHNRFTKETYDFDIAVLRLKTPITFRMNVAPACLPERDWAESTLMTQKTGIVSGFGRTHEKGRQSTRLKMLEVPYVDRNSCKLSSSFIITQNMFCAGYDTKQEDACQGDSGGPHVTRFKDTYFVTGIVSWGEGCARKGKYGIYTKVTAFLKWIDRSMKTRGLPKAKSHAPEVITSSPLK

[6] = target: T1, Coagulation factor X; test: Inhibition of human F10a assessed as decrease in p-nitroaniline cleavage from pefachrome F10a at 5 uM preincubated for 10 mins followed by substrate addition measured after 20 mins relative to control
[7] = tested on: Rattus norvegicus; test: Inhibition of thrombus formation in Sprague-Dawley rat at 10 mg/kg, po after 2 hrs relative to control; format: functional
[8] = target: T1, Coagulation factor X; test: Inhibition of human F10a assessed as decrease in p-nitroaniline cleavage from pefachrome F10a preincubated for 10 mins followed by substrate addition measured after 20 mins

Row | inhibition [5] | inhibition [6] | IC50 [8] | Structure (SMILES) | 2aPTT [1] | 2aPTT [2] | 2PT [3] | 2PT [4] | inhibition in vivo at 10 mg/kg [7]
1 | – | – | – | COc1ccc(-n2nc(Cn3nc(-c4ccccc4)[nH]c3=O)c3c2C(=O)N(c2ccc(N4CCCCC4=O)cc2)CC3)cc1 | 29.8 µM | 27.1 µM | 12.4 µM | 11.7 µM | –
2 | – | – | – | COc1ccc(-n2nc(Cn3cnc(-c4ccc(Cl)cc4)n3)c3c2C(=O)N(c2ccc(N4CCCCC4=O)cc2)CC3)cc1 | 5 µM | 3.6 µM | 3.5 µM | 1.9 µM | –
3 | – | – | – | COc1ccc(-n2nc(Cn3ccnn3)c3c2C(=O)N(c2ccc(N4CCCCC4=O)cc2)CC3)cc1 | 3.9 µM | 3.7 µM | 2.1 µM | 2.4 µM | –
4 | 60.6% | 70.3% | – | COc1ccc(-n2nc(Cn3cnc(-c4ccc(F)cc4)n3)c3c2C(=O)N(c2ccc(N4CCCCC4=O)cc2)CC3)cc1 | 3.1 µM | 2.3 µM | 2.1 µM | 0.9 µM | –
5 | – | – | – | COc1ccc(-n2nc(-n3cnnc3)c3c2C(=O)N(c2ccc(N4CCCCC4=O)cc2)CC3)cc1 | 13.7 µM | 10 µM | 5.7 µM | 4.9 µM | –
6 | – | – | – | COc1ccc(-n2nc(C3=NCCCCN3)c3c2C(=O)N(c2ccc(N4CCCCC4=O)cc2)CC3)cc1 | 26.9 µM | 24.3 µM | 12.1 µM | 10.9 µM | –
7 | – | – | – | COc1ccc(-n2nc(C3=NC(C)CN3)c3c2C(=O)N(c2ccc(N4CCCCC4=O)cc2)CC3)cc1 (stereo not given) | 17.1 µM | 14.6 µM | 10 µM | 8.9 µM | –
8 | – | – | – | COc1ccc(-n2nc(-n3cnnn3)c3c2C(=O)N(c2ccc(N4CCCCC4=O)cc2)CC3)cc1 | 8.2 µM | 7.3 µM | 5.7 µM | 4.2 µM | –
9 | – | – | – | COc1ccc(-n2nc(-n3cnnc3CN3CCCC3)c3c2C(=O)N(c2ccc(N4CCCCC4=O)cc2)CC3)cc1 | 18 µM | 15.6 µM | 8.4 µM | 7.6 µM | –
10 | – | – | – | COc1ccc(-n2nc(C(N)=O)c3c2C(=O)N(c2ccc(N4CCCCC4=O)cc2)CC3)cc1 [APIXABAN] | 1.4 µM | 0.9 µM | 1 µM | 0.8 µM | 95%
11 | – | – | – | COc1ccc(-n2nc(Cn3cnc(-c4ccccc4)n3)c3c2C(=O)N(c2ccc(N4CCCCC4=O)cc2)CC3)cc1 | 5 µM | 3.6 µM | 3.4 µM | 2.4 µM | –
12 | 94.5% | 99% | 140 nM | COc1ccc(-n2nc(-n3cnnc3CN3CCOCC3)c3c2C(=O)N(c2ccc(N4CCCCC4=O)cc2)CC3)cc1 | 1.2 µM | 0.7 µM | 0.9 µM | 0.5 µM | 98%
13 | – | – | – | COc1ccc(-n2nc(Cn3cc(C(N)=O)nn3)c3c2C(=O)N(c2ccc(N4CCCCC4=O)cc2)CC3)cc1 | 5.2 µM | 3.1 µM | 2.1 µM | 1.4 µM | –
14 | – | – | – | COc1ccc(-n2nc(C3=NCCN3C)c3c2C(=O)N(c2ccc(N4CCCCC4=O)cc2)CC3)cc1 | 12 µM | 10.5 µM | 9.6 µM | 8.8 µM | –
15 | – | – | – | COc1ccc(-n2nc(Cn3cnc(-c4cccnc4)n3)c3c2C(=O)N(c2ccc(N4CCCCC4=O)cc2)CC3)cc1 | 5.2 µM | 4.3 µM | 3.2 µM | 2 µM | –
16 | – | – | – | COc1ccc(-n2nc(Cn3cnc(-c4ccncc4)n3)c3c2C(=O)N(c2ccc(N4CCCCC4=O)cc2)CC3)cc1 | 2.1 µM | 2.3 µM | 1.9 µM | 1.6 µM | –
17 | 55.1% | 65.2% | – | COc1ccc(-n2nc(-n3cnnc3C)c3c2C(=O)N(c2ccc(N4CCCCC4=O)cc2)CC3)cc1 | 3 µM | 2.8 µM | 1.7 µM | 1.2 µM | –
18 | – | – | – | CCN(CC)Cc1nncn1-c1nn(-c2ccc(OC)cc2)c2c1CCN(c1ccc(N3CCCCC3=O)cc1)C2=O | 11.5 µM | 9.6 µM | 8 µM | 7.2 µM | –
19 | – | – | – | COc1ccc(-c2nn(Cc3nn(-c4ccc(OC)cc4)c4c3CCN(c3ccc(N5CCCCC5=O)cc3)C4=O)c(=O)[nH]2)cc1 | 23.2 µM | 19.5 µM | 19.3 µM | 17.7 µM | –
20 | – | – | – | COc1ccc(-n2nc(C3=NCCCN3)c3c2C(=O)N(c2ccc(N4CCCCC4=O)cc2)CC3)cc1 | 15.4 µM | 13.5 µM | 10.8 µM | 9.4 µM | –
21 | – | – | – | COc1ccc(-n2nc(-n3cnnc3N)c3c2C(=O)N(c2ccc(N4CCCCC4=O)cc2)CC3)cc1 | 9.1 µM | 8.3 µM | 5.9 µM | 4.1 µM | –
22 | 86.7% | 94% | 360 nM | COc1ccc(-n2nc(Cn3cc(C#N)nn3)c3c2C(=O)N(c2ccc(N4CCCCC4=O)cc2)CC3)cc1 | 1.5 µM | 1 µM | 0.9 µM | 0.7 µM | 89%
23 | – | – | – | COc1ccc(-n2nc(C3=NCCN3)c3c2C(=O)N(c2ccc(N4CCCCC4=O)cc2)CC3)cc1 | 12.5 µM | 11.8 µM | 7.5 µM | 6.2 µM | –
24 | – | – | – | COc1ccc(-n2nc(Cn3nnc4ccccc43)c3c2C(=O)N(c2ccc(N4CCCCC4=O)cc2)CC3)cc1 | 39.1 µM | 31.6 µM | 29.4 µM | 25.2 µM | –
25 | 66.1% | 76.4% | – | COc1ccc(-c2ncn(Cc3nn(-c4ccc(OC)cc4)c4c3CCN(c3ccc(N5CCCCC5=O)cc3)C4=O)n2)cc1 | 1.7 µM | 1.1 µM | 1.2 µM | 0.8 µM | –
